Source: BindingDB's records for patent US9695132 (Celgene CAR LLC, 2017)

Assays:
[1] = molecular target: T1, Fibroblast growth factor receptor 4 (Homo sapiens, UniProt P22455); experiment: Omnia Assay; conditions: pH 7.5
Procedure: Omnia Assay Protocol for Potency Assessment Against FGFR 4 Enzyme. a) [FGFR4-WT]=10 nM, [ATP]=300 uM, [Y10-Sox]=10 uM (ATP KMapp 300 uM): A 10x stock solution of FGFR4-WT (PR4380C), (from Invitrogen, Carlsbad, Calif.) corresponding to method a in Table 7, was prepared as described below. Alternatively, a 10x stock solution of FGFR4-WT (F01-11G), (SignalChem, Richmond, BC) corresponding to method b in Table 7, was prepared as described below. A solution of 1.4xATP (AS001A) and 5x Tyr-Sox conjugated peptide substrate (KNZ3101) were prepared in 1x kinase reaction buffer consisting of 20 mM Tris, pH 7.5, 5 mM MgCl2, 1 mM EGTA, 5 mM β-glycerophosphate, 5% glycerol (10x stock, KB002A) and 0.2 mM DTT (DS001A). […] The serially diluted compounds were prepared on a Tecan EVO100. A second addition of 10 ul of Tyr-Sox FGFR4 substrate was added to each well and the kinase reactions were started with the addition of 35 uL of 1.4xATP. The reactions were monitored every 71 seconds for 240 minutes at λex360/λem485 in a Synergy plate reader from BioTek (Winooski, Vt.).

[2] = molecular target: T1, Fibroblast growth factor receptor 4; experiment: Omnia Assay; conditions: pH 7.5; remark: listed apart in the source

T1 sequence (P22455 whole entry): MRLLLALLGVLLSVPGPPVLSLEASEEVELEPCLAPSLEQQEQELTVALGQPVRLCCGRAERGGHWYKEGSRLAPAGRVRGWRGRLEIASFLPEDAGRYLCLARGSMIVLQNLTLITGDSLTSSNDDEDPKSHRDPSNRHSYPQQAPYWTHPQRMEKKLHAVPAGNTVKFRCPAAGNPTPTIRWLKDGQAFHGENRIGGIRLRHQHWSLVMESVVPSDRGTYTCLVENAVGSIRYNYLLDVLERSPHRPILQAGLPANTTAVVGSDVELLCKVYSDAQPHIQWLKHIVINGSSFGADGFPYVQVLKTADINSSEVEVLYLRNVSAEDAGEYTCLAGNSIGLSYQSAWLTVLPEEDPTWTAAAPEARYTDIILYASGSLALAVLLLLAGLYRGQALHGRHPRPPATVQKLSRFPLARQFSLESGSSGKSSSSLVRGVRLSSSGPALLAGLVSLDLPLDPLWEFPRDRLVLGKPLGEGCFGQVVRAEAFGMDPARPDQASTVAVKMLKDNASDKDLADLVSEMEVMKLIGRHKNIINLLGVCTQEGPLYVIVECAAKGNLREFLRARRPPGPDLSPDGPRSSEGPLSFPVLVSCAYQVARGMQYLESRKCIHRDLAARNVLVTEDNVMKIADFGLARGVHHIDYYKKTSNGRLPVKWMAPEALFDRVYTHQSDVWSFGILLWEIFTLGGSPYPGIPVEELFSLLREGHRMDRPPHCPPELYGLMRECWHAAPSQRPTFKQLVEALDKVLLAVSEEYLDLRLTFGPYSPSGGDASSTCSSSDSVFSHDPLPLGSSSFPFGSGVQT

Compound	IC50 [1] [nM]	IC50 [2] [nM]
C=CC(=O)Nc1cc(N2CCC(C(=O)OC(C)(C)C)CC2)ccc1Nc1ncc2c(n1)N(C)C(=O)N(c1c(Cl)c(OC)cc(OC)c1Cl)C2 [US9695132, I-62]	< 100	
C=CC(=O)NC1COCC1Nc1ncc2c(n1)N(Cc1c[nH]cn1)C(=O)N(c1c(Cl)c(OC)cc(OC)c1Cl)C2 (centres undefined) [US9695132, I-214]	< 100	
C=CC(=O)Nc1cccc(Nc2ncc3c(n2)N(Cc2cccc(NC(=O)CC)c2)C(=O)C(c2c(Cl)c(OC)cc(OC)c2Cl)C3)c1 (centres undefined) [US9695132, I-232]		< 100
C=CC(=O)Nc1ccc(Nc2ncc3c(n2)N(Cc2cccc(NC(=O)CC)c2)C(=O)C(c2c(Cl)c(OC)cc(OC)c2Cl)C3)cc1 (centres undefined) [US9695132, I-233]		< 100
